The values that follow come from PubChem BioAssay (NCI).

SMILES strings stand for the structures. “And” between values parts separate entries of the source, which are not always exact repeats. Identical values can stand only once.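 Tested at 5 concentrations; 48 h exposure; 96-well plates; endpoints linearly interpolated, else capped at highest concentration. The concentration for 50% growth inhibition is given as GI50. TGI marks complete inhibition of growth.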 Bounds are passed on as bounds.

Holding throughout (test): NCI anticancer screen, dose series, 48 h
For assay [1], the system named is MDA-MB-231 breast.
In assay [2] the test system is SK-OV-3 ovarian.
For assay [3], the system named is UACC-62 melanoma.
In assay [4] the test system is OVCAR-5 ovarian.
Assay [5] has as its system ACHN renal.
The subject of assay [6] is SK-MEL-2 melanoma.
The subject of assay [7] is TK-10 renal.
The subject of assay [8] is NCI-H226 lung.
In assay [9] the test system is NCI-H23 lung.
The test system of assay [10] is RXF 393 renal.

Turning to `CC1(C)N=C(N)N=C(N)N1c1ccc(Cl)cc1`, the GI50 in assay [1] was > 100 µM; in assay [2], 43 µM; in [3], 4.09 µM; in assay [4], 0.854 µM; in assay [5] it was 9.55 µM; in [6], > 100 µM. For the same compound, the GI50 was 9.9 µM in assay [7], > 100 µM in assay [8], 2.51 µM in assay [9] and 8.09 µM in [10]. For the same compound, the TGI in assay [1], in assay [2], in assay [3], in assay [4], in [5] and in assay [6] was > 100 µM each time. The TGI in [7], in assay [8], in [9] and in assay [10] was > 100 µM in each case.
Turning to `CC(C)(C)c1cc(NC(=O)Nc2ccc(-c3cn4c(n3)sc3cc(OCCN5CCOCC5)ccc34)cc2)no1`, the GI50 in assay [1] is 6.34 µM and 2.36 µM and 7.92 µM; in assay [2] it was 7.33 µM and 5.07 µM and > 10 µM; in assay [3], 1.34 µM and 1.4 µM; in [4], 21.7 µM and 9.53 µM and > 10 µM; in assay [5], 3.48 µM and 1.22 µM and 8.06 µM; in assay [6] it was 6.73 µM and 2.78 µM and > 10 µM. Moreover, the GI50 in [7] was 11.7 µM and 4.12 µM and > 10 µM; in assay [8] it was 3.38 µM and 0.921 µM and 4.29 µM; in assay [10], 0.8 µM and 0.489 µM and 0.881 µM. Moreover, the TGI in assay [1] is 21 µM and 16.3 µM and > 10 µM; in assay [2], 22.4 µM and 19.2 µM and > 10 µM; in assay [3] it was 15.2 µM and 9.53 µM; in [4], 86.9 µM and 22.7 µM and > 10 µM; in [5], 18.1 µM and 13.2 µM and > 10 µM; in assay [6], 20.3 µM and 16.2 µM and > 10 µM. Also, the TGI in assay [7] is 24.1 µM and 17.3 µM and > 10 µM; in assay [8], 18.6 µM and 5.24 µM and > 10 µM; in assay [9], 26.8 µM and 12.8 µM and > 10 µM; in assay [10], 6.26 µM and 3.49 µM and > 10 µM.
In the case of `C/C(=N\OCC(O)CNCCSCc1ccccc1)c1ccccc1Cl` (stereo not drawn), the TGI in assay [1] turned out to be 35 µM; in [2], 35.4 µM; in [3], 34.4 µM; in assay [4], 37.9 µM; in [5], 37.8 µM; in assay [6] it was 62.7 µM. The TGI was 35.3 µM in assay [7], 35.4 µM in assay [8], > 100 µM in assay [9] and 37 µM in assay [10].
Regarding `CC(=O)CC/C=C(\C)[C@H](O)[C@H](C)C(=O)O[C@H]1C[C@H](C)C=C2C=C[C@@]3(C)O[C@@H](O)CC(=O)[C@]3(C)[C@H]21`, the GI50 in [1] is 0.558 µM; in assay [2] it was 1.26 µM; in assay [3] it was 0.618 µM; in [4], 1.04 µM; in [5] it was 0.339 µM; in assay [6], 0.419 µM. For the same compound, the GI50 was 0.942 µM in assay [7], 0.423 µM in assay [8], 0.384 µM in assay [9] and 0.233 µM in [10]. The TGI came to 3.07 µM in [1]; 6.42 µM in assay [2]; 2.14 µM in assay [3]; 6.62 µM in assay [4]; 2 µM in [5]; 1.91 µM in assay [6]. Moreover, the TGI in assay [7] came out at 5.5 µM; in assay [8] it was 4.6 µM; in assay [9], 2.44 µM; in assay [10] it was 0.867 µM.
In the case of `CC(C)[C@@](O)(c1ccc2cc(OC(F)F)c(OC(F)F)cc2c1)c1cn[nH]n1`, the GI50 in [1] was 18.5 µM; in [2] it was 16.2 µM; in [3], 15.1 µM; in [4], 21.7 µM; in [5], 22.6 µM; in [6], 17.4 µM. In addition, the GI50 was 14.9 µM in assay [7], 22.3 µM in [8], 14.3 µM in assay [9] and 15.4 µM in [10]. Also, the TGI in [1] stood at 39.1 µM; in [2], 38.1 µM; in [3] it was 31 µM; in assay [4], 55.6 µM; in assay [5], 83.2 µM; in assay [6] it was 34.3 µM. Also, the TGI amounted to 32.9 µM in [7], 58.2 µM in assay [8], 32.2 µM in [9] and 29.8 µM in assay [10].
As for `N/N=C(\c1nc2ccc([N+](=O)[O-])cc2[nH]c1=O)C(O)c1ccc(Cl)c(Cl)c1` (stereo not drawn), the TGI in [1], in [2], in assay [3], in [4], in assay [5] and in assay [6] was > 100 µM throughout. Further, the TGI in assay [7], in [8], in assay [9] and in assay [10] was > 100 µM throughout.
For the compound `Oc1ccc2ccccc2c1N=Nc1cc(Cl)ccc1Cl`, the TGI in assay [1] is 27.9 µM; in assay [2] it was 41.2 µM; in assay [3], > 50 µM; in [4], > 50 µM; in [5], 24.7 µM; in assay [6], > 50 µM. Moreover, the TGI in [7] was 35.9 µM; in [8], > 50 µM; in [9], > 50 µM; in [10], > 50 µM.
In the case of `C#Cc1cccc(Nc2ncnc3ccc(OCCCCNCCS(C)(=O)=O)cc23)c1`, the GI50 is 5.11 µM in assay [1]; 1.28 µM in assay [2]; 4.82 µM in [3]; 4.93 µM in [4]; 0.945 µM in [5]; 7.75 µM in assay [6]. Also, the GI50 in assay [7] was 0.238 µM; in assay [8] it was > 19.6 µM; in assay [9] it was 16.7 µM; in assay [10], 5.32 µM. Further, the TGI was 11.7 µM in assay [1]; > 25 µM in assay [2]; 9.1 µM in assay [3]; > 25 µM in [4]; > 25 µM in [5]; 17.8 µM in [6]. Moreover, the TGI in assay [7] is 6.27 µM; in assay [8] it was > 25 µM; in assay [9] it was > 25 µM; in assay [10], > 22.6 µM.
With `CC1=C(C)C(=O)O[C@@H]([C@](C)(O)[C@]2(O)CC[C@@]3(O)[C@@H]4C[C@H](O)[C@]5(O)[C@@H](O)C=CC(=O)[C@]5(C)[C@H]4CC[C@]23C)C1`, the TGI in [1], in assay [2], in assay [3], in assay [4], in [5] and in [6] was > 100 µM in each case. In addition, the TGI in [7], in assay [8], in assay [9] and in assay [10] was > 100 µM throughout.
As to `COc1ccc(NC2=C(I)C(=O)c3ncccc3C2=O)cc1`, the GI50 in assay [1] is 2.08 µM; in assay [2], 1.36 µM; in assay [3], 1.66 µM; in assay [4], 1.69 µM; in [5] it was 1.81 µM; in assay [6] it was 1.49 µM. The GI50 in assay [7] was 2.14 µM; in [8] it was 1.42 µM; in assay [9] it was 0.327 µM; in [10] it was 1.41 µM. Further, the TGI was determined as 7.64 µM in assay [1]; 2.72 µM in assay [2]; 3.4 µM in assay [3]; 3.15 µM in assay [4]; 8.53 µM in [5]; 3.18 µM in assay [6]. In addition, the TGI turned out to be 3.96 µM in assay [7], 2.83 µM in [8], 1.68 µM in assay [9] and 2.82 µM in assay [10].
Consider `O=C(c1ccc(C(F)(F)F)c(Cl)c1)N(Cc1ccc(Cl)cc1)c1ccc(-c2cc(C(F)(F)F)[nH]n2)c(O)c1`, for which the GI50 was 0.964 µM in assay [1]; 1.37 µM in assay [2]; 0.8 µM in assay [3]; 1.07 µM in assay [4]; 1.24 µM in assay [5]; 1.16 µM in [6]. Further, the GI50 in [7] is 1.41 µM; in assay [8] it was 1.08 µM; in assay [9], 0.91 µM; in assay [10] it was 0.923 µM. Besides, the TGI in assay [1] came out at 2.21 µM; in assay [2], 4.89 µM; in assay [3], 1.97 µM; in [4], 4.26 µM; in [5], 4.05 µM; in assay [6] it was 3.13 µM. Also, the TGI in [7] came to 3.99 µM; in assay [8] it was 2.94 µM; in [9], 2.45 µM; in [10], 2.04 µM.
Take `O=c1c2ccccc2c(/C=N\NC2=NCCN2)c2oc3ccccc3n12`: the GI50 is 16.7 µM in assay [1]; 19.5 µM in assay [2]; 16.3 µM in [3]; 19.8 µM in [4]; 14.2 µM in assay [5]; 21.8 µM in assay [6]. Also, the GI50 in [7] was 16.3 µM; in assay [8] it was 19.2 µM; in assay [9], 15.7 µM; in [10], 21.4 µM. In addition, the TGI is 35 µM in assay [1]; 40.8 µM in assay [2]; 33.4 µM in [3]; 37.1 µM in assay [4]; 29.9 µM in assay [5]; 87.6 µM in assay [6]. The TGI in assay [7] worked out at 31.3 µM; in assay [8], 48.2 µM; in [9], 37.6 µM; in [10], 40.2 µM.
On to `COc1ccc2c3c1OC1C(OC)(OC)C=C[C@@]4(Br)[C@@H](C2)N(CC2CC2)CC[C@]314` (stereo partly drawn), for which the TGI in assay [1], in assay [2], in [3], in [4], in assay [5] and in [6] was > 100 µM throughout. In addition, the TGI in assay [7], in [8], in assay [9] and in assay [10] was > 100 µM in each case.
As to `Oc1ccc2c3c1OC1c4[nH]ncc4C[C@H]4[C@@H](C2)N(CC2CC2)CC[C@]314` (stereo partly drawn), the TGI in [1], in [2], in assay [3], in assay [4], in [5] and in [6] was > 100 µM in each case. Moreover, the TGI in [7], in [8], in [9] and in assay [10] was > 100 µM each time.
As to `COC(=O)c1ccc(/C=C(\c2ccc([N+](=O)[O-])o2)S(=O)(=O)c2ccc(NC(C)=O)cc2)o1`, the TGI in [1] turned out to be 5.77 µM; in assay [2], 38.2 µM; in assay [3], 4.31 µM; in assay [4], 10.9 µM; in assay [5] it was 11.1 µM; in assay [6], 39.2 µM. Besides, the TGI in [7] was found to be 16.2 µM; in assay [8] it was 7.98 µM; in [9] it was 28.3 µM; in [10], 25.7 µM.
As to `O=C(C=P(c1ccccc1)(c1ccccc1)c1ccccc1)CCl`, the GI50 in assay [1] is 1.22 µM; in assay [2], 4.67 µM; in [3], 1.14 µM; in assay [4], 1.46 µM; in [5], 0.569 µM; in assay [6] it was 1.79 µM. The GI50 is 1.69 µM in [7], 1.31 µM in assay [8], 0.811 µM in assay [9] and 1.01 µM in assay [10]. Further, the TGI in assay [1] stood at 3.03 µM; in assay [2], 16.1 µM; in [3], 2.88 µM; in assay [4], 3.73 µM; in assay [5], 1.94 µM; in [6], 3.87 µM. Also, the TGI in assay [7] came out at 3.12 µM; in assay [8], 2.97 µM; in assay [9], 4.83 µM; in [10] it was 2.41 µM.
Take `COCCOC1=CC(=O)c2c(O)ccc(O)c2C1=O`: the GI50 is 2.45 µM in [1]; 17.9 µM in assay [2]; 1.62 µM in assay [3]; 1.92 µM in [4]; 1.63 µM in assay [5]; 1.86 µM in [6]. Also, the figures for the GI50 in assay [7], in assay [9] and in assay [10] were 2.9 µM, 1.44 µM and 1.5 µM, respectively. Also, the TGI in [1] is 3.23 µM and 6.14 µM; in assay [2] it was 31.7 µM; in assay [3], 3.74 µM and 3.58 µM; in [4], 2.96 µM and 3.46 µM; in [5], 3.41 µM and 3.14 µM; in assay [6] it was 2.58 µM and 3.82 µM. The TGI in [7] is 3.57 µM and 5.78 µM; in assay [8] it was 4.01 µM and 4.16 µM; in [9] it was 2.43 µM and 3.34 µM; in [10], 3.63 µM and 2.94 µM.
